Test results: PubChem BioAssay (NCI)
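1) Cells in 96-well plates. 2) Compound, 48 h, 5 concentrations. 3) Linear interpolation between surrounding doses. 4) Unreached endpoint = highest concentration. The concentration for 50% growth inhibition is given as GI50. TGI: total growth inhibition.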

Columns and labels:
Test in all cases: DTP human tumour cell line panel, 48 h
[1] = tested on: PC-3 prostate
[2] = tested on: HOP-18 NSCLC
[3] = tested on: KM20L2 colon
[4] = tested on: LXFL 529 NSCLC
[5] = tested on: M19-MEL melanoma
[6] = tested on: RXF-631 renal
[7] = tested on: SNB-78 CNS
[8] = tested on: XF 498 CNS
[9] = tested on: MDA-N

SMILES	GI50 [1] [µM]	TGI [1] [µM]	TGI [2] [µM]	TGI [3] [µM]	TGI [4] [µM]	TGI [5] [µM]	TGI [7] [µM]	TGI [8] [µM]	further results
N#Cc1ccc(OC(=O)Nc2ccc(Cl)c(Cl)c2)cc1	2.87	21.6							
COC(=O)c1cccc2cccc(C(=O)Nc3ccc(Cl)cc3)c12			> 100	> 100	> 100	> 100	> 100	> 100	TGI [6]: > 100 µM
CCCCCc1ccc(S(=O)(=O)Nc2cc(-c3csc(NC(C)=O)n3)ccc2N2CCN(C)CC2)cc1	2.23	7.72							
CCC(=O)Nc1ccc(N=NN(C)C)cc1		> 100							
CC1C(=O)OC2CC[N+]3([O-])CC=C(COC(=O)C(C)(O)C1(C)O)C23 (stereo unspecified)		> 100							TGI [9]: > 100 µM
COC(C(=O)[C@@H](O)[C@@H](C)O)[C@@H]1Cc2cc3cc(O[C@H]4C[C@@H](O[C@H]5C[C@@H](O)[C@H](O)C(C)O5)[C@H](O)C(C)O4)c(C)c(O)c3c(O)c2C(=O)[C@H]1O[C@H]1C[C@@H](O[C@H]2C[C@@H](O[C@H]3C[C@@H](O)[C@H](OC)C(C)O3)[C@@H](O)C(C)O2)[C@H](O)C(C)O1 (stereo partly specified)	0.0317	> 33.3							
O=S1(=O)OCCOS(=O)(=O)C1Cl			> 100		> 100	> 100	> 100		
CC(C(=O)n1c2ccccc2c2ccccc21)N(c1ccccc1)c1ccccc1 (stereo unspecified)				33.1	27.9	32.5	32		
OCCNCCOc1ccc(/C(=C(/Cl)c2ccccc2)c2ccccc2)cc1			33.4	8.56	19.7	23.5	23.6	18.2	
COc1cc(C2C(C(=O)Nc3cc(F)c(F)cc3F)=C(C)NC(C)=C2C(=O)Nc2cc(F)c(F)cc2F)ccc1O				> 100	> 100	77.3	> 100	33.1	TGI [6]: 37.9 µM
CC1=CC(=O)C(C(O)(C(F)(F)F)C(F)(F)F)C(C)(C)C1 (stereo unspecified)		> 10							TGI [9]: > 10 µM
Cc1cc(C(C)(C)C)cc(Cc2cc(C(C)(C)C)cc(Cc3cc(C(C)(C)C)cc(C)c3O)c2O)c1O			29	29.6	20.5	11.1	17.9	4.13	
CC(C)C1=C2CCC3(C)C(CCC4C5C6OCC5(CCC6(C)C)CCC43C)C2(C)CC1 (stereo unspecified)									TGI [9]: 30.2 µM
O=c1oc2ccc(Br)cc2c(=O)n1-c1ccc(F)cc1F	2.85	12.7							
[F][Sn]([F])([c]1ccccc1)[c]1ccccc1			3.59	3.39	2.08	6.2	16	3.45	GI50 [2]: 2.08 µM; GI50 [3]: 1.87 µM; GI50 [4]: 0.815 µM; GI50 [5]: 2.35 µM; GI50 [6]: 2.3 µM; TGI [6]: 6.01 µM; GI50 [7]: 3.18 µM; GI50 [8]: 1.99 µM
O=C(OCC(OC(=O)c1ccccc1)C(OC(=O)c1ccccc1)C(OC(=O)c1ccccc1)c1cnn(-c2ccccc2)n1)c1ccccc1 (stereo unspecified)									TGI [9]: > 100 µM
CCCCCCCCCCN1CCC(N2CCCCC2)CC1	2	13							
Cc1cccc(C(C)C)c1NC(=O)C(=O)C(C(=O)c1ccccc1F)C1OC(=O)c2ccccc21 (stereo unspecified)			32.4	76.5	27.4	26.4		23.3	TGI [6]: 60.3 µM
Nc1ccccc1SC1CC(=O)N(c2ccc(Cl)c(Cl)c2)C1=O (stereo unspecified)	8.78	> 100							
Cc1ccc(Nc2nnc(-c3ccc4c(c3)OCO4)o2)c(C)c1		> 100							TGI [9]: > 100 µM
Cc1ccc(S(=O)(=O)NC(=O)NC2=NC(C)(C)N(c3ccc(Cl)c(Cl)c3)C(N)=N2)cc1		> 100							TGI [9]: > 100 µM
O=[N+]([O-])c1ccc(CSCc2ccc(Cl)cc2)cc1		> 100							TGI [9]: > 100 µM
CC1=C(C(=O)Nc2ccccc2)C(c2ccc(C3C(C(=O)Nc4ccccc4)=C(C)NC(C)=C3C(=O)Nc3ccccc3)cc2)C(C(=O)Nc2ccccc2)=C(C)N1		12.5	21.7	4.94	5.34	22		20.5	TGI [9]: 14.5 µM
CC(=O)OCCOCNC(=S)N/N=C/c1ccc(Br)s1			> 100	> 100	> 100	> 100	> 100	> 100	
COc1cc(C(=O)C/C(CCC(=O)Nc2ccc(Cl)cc2Cl)=N/NC(=O)C(=O)NN)ccc1O			> 100	> 100	> 100	> 100		> 100	TGI [6]: > 100 µM

SMILES	GI50 [1] [µM]	TGI [1] [µM]	TGI [2] [µM]	TGI [3] [µM]	TGI [4] [µM]	TGI [5] [µM]	TGI [7] [µM]	TGI [8] [µM]	further results
CC1=C(c2cc(C(=O)Nc3ccc(Cl)cc3)nc(=S)[nH]2)Sc2ccccc2N1			> 100	> 100	> 100	> 100	> 100	> 100	TGI [6]: > 100 µM
c1ccc(CSc2nc3ccccc3nc2-c2cccs2)cc1			> 100		> 100	> 100	> 100	> 100	
N.N.NCCCCCCCCCN.O=C([O-])CC(=O)[O-].O=C([O-])CC(=O)[O-].[Pt+4].[Pt+4]			> 100	> 100	> 100		> 100		GI50 [2]: > 100 µM; GI50 [3]: > 100 µM; GI50 [4]: > 100 µM; GI50 [7]: > 100 µM
CCOc1ccccc1NC(=O)C(=O)Cc1nc2ccccc2s1			> 100	> 100	> 100	> 100	> 100	> 100	TGI [6]: > 100 µM
O=C1C(=O)N(c2cc(Cl)ccc2Cl)C(=O)C(=O)C1c1nc2ccccc2o1			> 100	> 100	> 100	> 100	> 100	> 100	TGI [6]: > 100 µM
Cc1nn(C(=O)c2ccc(Cl)cc2)c2c1C(c1ccc(O)cc1)SC(N)=N2 (stereo unspecified)		> 10							TGI [9]: > 10 µM
COCOc1ccc(C2(O)Oc3cc(OCOC)ccc3C2C)c(O)c1 (stereo unspecified)		26.3							TGI [9]: 28.7 µM
CC1CN1c1c(C(=O)/C=C/c2ccc(Cl)cc2)c(-c2ccccc2)nn(C)c1=O (stereo unspecified)			> 10	> 10	5.13	> 10	5.17	5.5	
CCOC(CN(C)C(=S)Nc1cccc2ccccc12)OCC		> 10							TGI [9]: > 10 µM
CC/C=C/C/C=C/C/C=C/C/C=C/C/C=C/C/C=C/CCC(=O)Nc1ccn([C@@H]2O[C@H](CO)[C@@H](O)C2(F)F)c(=O)n1	6.65	52.3							
CCCCCCCCCCCCOC1C(C(CC(=O)NCCN2CCCC2)NS(=O)(=O)c2cc(Cl)cc(Cl)c2)OC2OC(C)(C)OC21 (stereo unspecified)	1.64	3.02							
O=c1nc(-c2ccccc2)cc(-c2ccccc2O)[nH]1			> 100	> 100	> 100	> 100	> 100	> 100	
Cc1cccc(C)c1NC(=O)C(=O)CC(=O)c1cccc([N+](=O)[O-])c1			> 100	> 100	> 100	> 100	> 100	> 100	
C[C@H]1CCC/C=C/[C@@H]2C[C@H](O)C[C@H]2[C@H](O)[C@@H](SCC(O)CO)CC(=O)O1 (stereo partly specified)	32.8	> 100							GI50 [9]: 25.5 µM; TGI [9]: > 100 µM
O=C1C(Cl)=C(Nc2ccccc2O)C(=O)N1Cc1ccccc1	18.1	39.1							
O=C(O)CN(c1ccccc1)S(=O)(=O)c1ccc([N+](=O)[O-])cc1			> 100	> 100	> 100	> 100		> 100	TGI [6]: > 100 µM
O=C(Nc1ccc(Cl)c(Cl)c1)Nc1ccccc1O	3.09	27.9							
Cc1cc(C)n(-c2nnc3n2N=C(c2ccc(-c4ccccc4)cc2)CS3)n1	3.15	> 100							
Nc1ccc2nc3n(c2c1)C(=O)c1ccccc1-3		> 100							TGI [9]: > 100 µM
O=C1CSC(c2ccc(-c3nc4ccccc4s3)cc2)=N1	> 100	> 100							
Clc1ccc(N=CNc2ccc(-c3nc4ccccc4o3)cc2)cc1	41.7	> 100							
O=C(OCc1ccc2c(Cl)cc(Cl)c(O)c2n1)N1CCN(C(=O)c2cc3cc(F)ccc3[nH]2)CC1	1.59	> 100							
OCC(O)CNc1ccnc2cc(Cl)ccc12 (stereo unspecified)			> 100	> 100	> 100	> 100	> 100	> 100	
CCN(CC)c1cc2oc3cc(N)cc(=N)c-3nc2cc1C	1.73	> 100							
C=CCn1c2c(sc1=S)C(S)N=CN2 (stereo unspecified)			70.1	> 100	> 100	> 100	> 100	> 100	

SMILES	GI50 [1] [µM]	TGI [1] [µM]	TGI [2] [µM]	TGI [3] [µM]	TGI [4] [µM]	TGI [5] [µM]	TGI [7] [µM]	TGI [8] [µM]	further results
C=CCN1CC2CON(C(=O)C(OC)(c3ccccc3)C(F)(F)F)C2C1C(C)C (stereo unspecified)									GI50 [9]: 31.8 µg/mL
COC(=O)/C(=C\c1ccc(N(CCC#N)CCC#N)cc1)NC(=O)c1cc([N+](=O)[O-])ccc1Cl			> 100	> 100	> 100	> 100	> 100		
CCN(CC)CCNC(=O)c1ccc(C)c(OCc2ccccc2)c1[N+](=O)[O-]		> 100	> 100	64.5	33.9	32.7	> 100	39.7	TGI [9]: 38.3 µM
COc1ccc2c(Oc3ccc(NC(=O)c4c(C)n(CC(C)(C)O)n(-c5ccccc5)c4=O)nc3)ccnc2c1	19.5	> 95.6							
CCOC(=O)/C(=C/c1cccc(C#N)c1)N(CC)CC			> 100		> 100	> 100	> 100	> 100	TGI [6]: > 100 µM
O=C(N/N=C/c1c(Cl)cccc1Cl)c1ccc(C(F)(F)F)nc1Nc1cccc(C(F)(F)F)c1	0.767	> 21.1							
Cn1c(=O)c2c(ncn2CC(=O)Nc2ccc(-c3ccccc3)nn2)n(C)c1=O	> 100	> 100							
O=C(O)C12CC3(C(=O)O)CC(C(=O)O)(CC(C(=O)O)(C1)C3=O)C2=O		> 100							TGI [9]: > 100 µM
CN1CCN(c2ccc(Nc3ncc4cc(C#N)c(=O)n(C5CCCC5)c4n3)cc2)CC1	0.611	> 23.2							
Nc1ccc2[nH]cc(CCC(=O)O)c2c1		> 100							TGI [9]: > 100 µM
Nc1nc(N)c2cc(CNc3ccc(C(=O)NC(CC(=O)O)C(=O)O)c(Cl)c3)ccc2n1 (stereo unspecified)	< 0.01	> 500							GI50 [9]: 0.05 µM; TGI [9]: > 500 µM
COc1ccc2c(c1)C(C)Cc1c(ncnc1-n1cnc3cc(C)ccc31)N2C (stereo unspecified)	0.0407	21							
COC(=O)CCC1=C(CC(=O)OC)C(C)=N/C1=C\c1[nH]c(-c2ccc[nH]2)cc1OC	5.32	22.6							
COc1ccc2c3c(Nc4ccc(/C(C)=N/O)cc4)[nH]c4ccccc4c-3c(N=O)c2c1	1.52	3.2							
C[C@]12CC[C@@H]3c4ccc(O)c([N+](=O)[O-])c4CC[C@H]3[C@@H]1CC[C@@H]2NS(=O)(=O)c1cccc(Br)c1	2.56	11.1							
Oc1ccc(Br)cc1C=Nc1ccc(N=Cc2cc(Br)ccc2O)cc1				> 100			> 100		
COC(=O)c1cc(/C=C/c2ccc(S(N)(=O)=O)cc2)ccc1O	30.7	> 100							
C/C(=N\NC(=S)N1CC2CCC(CC2)C1)c1ccccn1	0.026	1.75							
Cc1ncc([N+](=O)[O-])n1CCNS(=O)(=O)CCCn1ncnc1[N+](=O)[O-]		> 100							TGI [9]: > 100 µM
CN(C)CCSc1nccc(-c2cc3ccccc3s2)n1					30.9		47.8		
Cn1cc(-c2ccc(-c3cncc(Cl)c3N3CCC4(CCNC4=O)CC3)cc2)cn1	47.3	> 100							
S=C1SC2=Nc3ccccc3CN2C2=NCCN12	> 100	> 100							
O=C(O)CSc1n[nH]c(Cc2ccccc2)n1			> 100		> 100	> 100	> 100	> 100	TGI [6]: > 100 µM
